Data published in US20050101595A1, “N-containing cycloalkyl-substituted amino-thiazole derivatives and pharmaceutical compositions for inhibiting cell proliferation and methods for their use” (PFIZER INC., priority 2003, published 2005).
Structures can show the parent of a compound that is named as a salt. Where two headings read alike, the source gives them in different places.

Tests used:
CDK2/Cyclin A = CDK2/Cyclin A (Homo sapiens, UniProt P24941); test: Inhibition of CDK2/Cyclin A Retinoblastoma Kinase Activity; type: biochemical; conditions: for Ki: apparent Ki, CDK2/proteolyzed cyclin A, Rb fragment substrate, 25 μM ATP; for CDK2 % Inhibition At 0.03 μM: Table 2
Summary of the method: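 Baculovirus-expressed CDK2 complexed with proteolyzed cyclin A (10 or 19 nM), Rb fragment substrate, 25 μM [32P/33P]ATP, HEPES pH 7.4, 30 °C for 60 or 75 min under initial-rate conditions. Filter capture and phosphorimager readout; apparent Ki fitted to competitive or tight-binding competitive inhibition.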

[1] = target: human CDK4 and genetically truncated (1-264) cyclin D3 (Homo sapiens, UniProt P11802); test: Inhibition of CDK4/Cyclin D Retinoblastoma Kinase Activity; type: biochemical; conditions: for Ki: apparent Ki, CDK4/truncated cyclin D3, Rb fragment substrate, 25 μM ATP
Summary of the method: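 Human CDK4/truncated cyclin D3 (1-264) complex from baculovirus-infected insect cells, 5 nM, phosphorylating Rb fragment (residues 386-928, His-tagged) with 25 μM [32/33P]ATP in HEPES pH 7.4, MgCl2, 2% DMSO at 30° C. for 20 min (60 min for tight binders). Filter-captured radioactivity by phosphorimager; apparent Ki from competitive or tight-binding fits.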

HCT-116 cell line = test: Inhibition of cell growth, tetrazolium salt (MTT) assay; type: cell-based; conditions: for IC50: Homo sapiens, HCT-116, 120 h, MTT, three to five days, read-out: HCT-116 IC50; for HCT-116 % Inhibition at 0.25 μM: 0.25 μM compound
Summary of the method: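 Growth inhibition by MTT reduction at 540 nm (0.2 mg/mL, 4 h at 37° C, formazan dissolved in DMSO), normalized to cells given only 0.5% v/v DMSO. HCT-116 cultures in McCoy's 5A were dosed 4 h post-plating and kept three to five days at 37° C, 5% CO2.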

[2] = 0.1 μM compound, HCT-116, Table 4
[3] = 0.1 μM compound, HCT-116, Table 3

Chain of human CDK4 and genetically truncated (1-264) cyclin D3 (P11802 whole entry, the tested form may be a part): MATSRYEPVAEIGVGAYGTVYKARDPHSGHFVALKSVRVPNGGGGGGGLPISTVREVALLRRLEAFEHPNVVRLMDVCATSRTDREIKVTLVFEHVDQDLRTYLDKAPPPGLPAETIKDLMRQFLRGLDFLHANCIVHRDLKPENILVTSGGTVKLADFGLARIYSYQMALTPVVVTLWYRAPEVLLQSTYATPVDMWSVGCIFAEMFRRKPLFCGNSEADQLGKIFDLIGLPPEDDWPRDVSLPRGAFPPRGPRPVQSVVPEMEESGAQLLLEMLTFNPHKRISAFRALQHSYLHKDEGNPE
Chain of human CDK4 and genetically truncated (1-264) cyclin D3 (P30281 1-264 partner): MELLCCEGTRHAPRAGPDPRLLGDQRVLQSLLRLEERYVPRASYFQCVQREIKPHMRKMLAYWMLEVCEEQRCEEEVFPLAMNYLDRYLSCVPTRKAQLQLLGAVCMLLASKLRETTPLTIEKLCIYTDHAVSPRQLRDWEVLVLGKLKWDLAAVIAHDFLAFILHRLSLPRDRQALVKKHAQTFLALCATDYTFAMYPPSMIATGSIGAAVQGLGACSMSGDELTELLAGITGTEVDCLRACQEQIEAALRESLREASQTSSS

With CN1CCC(C(=O)N2CCC(Nc3nc(N)c(C(=O)c4c(F)cccc4F)s3)CC2)CC1 [Example D1, 1-(4-Amino-2-{1-[1-(1-methyl-piperidin-4-yl)-methanoyl]-piperidin-4-ylamino}-thiazol-5-yl)-1-(2,6-difluoro-phenyl)-methanone] as the compound, how does the Ki (CDK2/Cyclin A) read?
Its Ki is 460 nM.

What about the Ki [1] of the same compound?
Its Ki is 130 nM.

And the IC50 (HCT-116 cell line; first HCT-116 column (c4))?
Its IC50 is over 5000 nM.

With CC1(C)CN(c2ccc(S(=O)(=O)N3CCC(Nc4nc(N)c(C(=O)c5c(F)cccc5F)s4)CC3)cn2)C=N1 [Example G21, 1-(4-Amino-2-{1-[6-(4,4-dimethyl-4,5-dihydro-imidazol-1-yl)-pyridine-3-sulfonyl]-piperidin-4-ylamino}-thiazol-5-yl)-1-(2,6-difluoro-phenyl)-methanone] as the compound, how does the Ki (CDK2/Cyclin A) read?
The Ki was under 1 nM.

What about the Ki [1] of the same compound?
The Ki was 0.68 nM.

What about the IC50 (HCT-116 cell line; first HCT-116 column (c4)) of the same compound?
The IC50 was 1900 nM.

What about the IC50 (HCT-116 cell line; second HCT-116 column (c5)) of the same compound?
The IC50 was over 5000 nM.

CC(=O)OC(C(=O)N1CCC(Nc2nc(N)c(C(=O)c3c(F)cccc3F)s2)CC1)c1ccccc1 (stereo not drawn) [Example Q40] was tested. Which “CDK2 % Inhibition at 0.03 μM” value (CDK2/Cyclin A; 0.03 μM compound, Table 4) did it give?
Its value is −5%.

And the “CDK4 % Inhibition at 0.03 μM” value ([1]; 0.03 μM compound, Table 4)?
The value was 7%.

What about the “HCT-116 % Inhibition at 0.1 μM” value (HCT-116 cell line; [2]) of the same compound?
The value was 0%.

And the “HCT-116 % Inhibition at 0.25 μM” value (HCT-116 cell line; HCT-116, Table 4)?
The value was 20%.

For Nc1nc(NC2CCN(S(=O)(=O)c3ccc(N4CCC[C@H]4CO)nc3)CC2)sc1C(=O)c1c(F)cccc1F [Example G14, 1-{4-Amino-2-{1-[6-(2S-hydroxymethyl-pyrrolidin-1-yl)-pyridine-3-sulfonyl]-piperidin-4-ylamino}-thiazol-5-yl)-1-(2,6-difluoro-phenyl)-methanone Trifluoroacetic Acid Salt], which Ki (CDK2/Cyclin A) is on record?
Its Ki is 0.5 nM.

And the Ki [1]?
The Ki was 0.8 nM.

And the IC50 (HCT-116 cell line; first HCT-116 column (c4))?
Its IC50 is 140 nM.

And the IC50 (HCT-116 cell line; second HCT-116 column (c5))?
Its IC50 is 3500 nM.

For CC(C)c1ccccc1NC(=O)N1CCC(Nc2nc(N)c(C(=O)c3c(F)cccc3F)s2)CC1 [Example O40], which “CDK2 % Inhibition At 0.03 μM” value (CDK2/Cyclin A; 0.03 μM compound) is on record?
Its value is 30%.

And the “CDK4 % Inhibition at 0.03 μM” value ([1]; 0.03 μM compound, Table 2)?
Its value is 6%.

What about the “HCT-116 % Inhibition at 0.25 μM” value (HCT-116 cell line; HCT-116, Table 2) of the same compound?
The value was 3%.

What does the source list for Cc1ccc(NC(=O)N2CCC(Nc3nc(N)c(C(=O)c4c(F)cccc4F)s3)CC2)c(C)c1 [Example O41]?
CDK2 % Inhibition At 0.03 μM (CDK2/Cyclin A; 0.03 μM compound): 33%; CDK4 % Inhibition at 0.03 μM ([1]; 0.03 μM compound, Table 2): 1%; HCT-116 % Inhibition at 0.25 μM (HCT-116 cell line; HCT-116, Table 2): 26%

How did the Ki (CDK2/Cyclin A) turn out when CN1CC[C@H](Oc2ccc(S(=O)(=O)N3CCC(Nc4nc(N)c(C(=O)c5c(F)cccc5F)s4)CC3)cn2)C1 [Example H28, (4-Amino-2-{1-[6-(1-methyl-pyrrolidin-3S-yloxy)-pyridine-3-sulfonyl]-piperidin-4-ylamino}-thiazol-5-yl)-(2,6-difluoro-phenyl)-methanone Hydrochloride] was run?
The Ki was 0.41 nM.

And the Ki [1]?
The Ki was 1 nM.

What about the IC50 (HCT-116 cell line; first HCT-116 column (c4)) of the same compound?
The IC50 was 49 nM.

And the IC50 (HCT-116 cell line; second HCT-116 column (c5))?
The IC50 was 160 nM.

How did the “CDK2 % Inhibition at 0.03 μM” value (CDK2/Cyclin A; 0.03 μM compound, Table 3) turn out when Cc1nn(C)c(Cl)c1S(=O)(=O)N1CCC(Nc2nc(N)c(C(=O)c3c(F)cccc3F)s2)CC1 [Example P50] was run?
The value was 30%.

What about the “CDK4 % Inhibition at 0.03 μM” value ([1]; 0.03 μM compound, Table 3) of the same compound?
The value was 35%.

And the “HCT-116 % Inhibition at 0.1 μM” value (HCT-116 cell line; [3])?
The value was 14%.

What about the “HCT-116 % Inhibition at 0.25 μM” value (HCT-116 cell line; HCT-116, Table 3) of the same compound?
The value was 25%.

How did the “CDK2 % Inhibition at 0.03 μM” value (CDK2/Cyclin A; 0.03 μM compound, Table 4) turn out when Nc1nc(NC2CCN(C(=O)Oc3ccc(Cl)cc3)CC2)sc1C(=O)c1c(F)cccc1F [Example Q5] was run?
Its value is 45%.

And the “CDK4 % Inhibition at 0.03 μM” value ([1]; 0.03 μM compound, Table 4)?
The value was 81%.

And the “HCT-116 % Inhibition at 0.1 μM” value (HCT-116 cell line; [2])?
The value was 0.81%.

And the “HCT-116 % Inhibition at 0.25 μM” value (HCT-116 cell line; HCT-116, Table 4)?
Its value is 36%.

Which “CDK2 % Inhibition at 0.03 μM” value (CDK2/Cyclin A; 0.03 μM compound, Table 3) does the source give for Cc1cccc(S(=O)(=O)N2CCC(Nc3nc(N)c(C(=O)c4c(F)cccc4F)s3)CC2)c1 [Example P37] here?
Its value is 58%.

What about the “CDK4 % Inhibition at 0.03 μM” value ([1]; 0.03 μM compound, Table 3) of the same compound?
Its value is 65%.

What about the “HCT-116 % Inhibition at 0.1 μM” value (HCT-116 cell line; [3]) of the same compound?
Its value is 0%.

What about the “HCT-116 % Inhibition at 0.25 μM” value (HCT-116 cell line; HCT-116, Table 3) of the same compound?
The value was 27%.

What does the source list for COc1cccc(OC)c1C(=O)N1CCC(Nc2nc(N)c(C(=O)c3c(F)cccc3F)s2)CC1 [Example R118]?
CDK2 % Inhibition at 0.03 μM (CDK2/Cyclin A; at 0.03 μM): 36%; CDK4 % Inhibition at 0.03 μM ([1]; at 0.03 μM): 33%; HCT-116 % Inhibition at 0.1 μM (HCT-116 cell line; HCT-116 cells, at 0.1 μM): 7%; HCT-116 5 Inhibition at 0.25 μM (HCT-116 cell line; HCT-116 cells, at 0.25 μM): 47

Nc1nc(NC2CCN(S(=O)(=O)c3ccc(S(=O)(=O)c4ccc(C(F)(F)F)cn4)s3)CC2)sc1C(=O)c1c(F)cccc1F [Example P43] was tested. Which “CDK2 % Inhibition at 0.03 μM” value (CDK2/Cyclin A; 0.03 μM compound, Table 3) did it give?
The value was 70%.

What about the “CDK4 % Inhibition at 0.03 μM” value ([1]; 0.03 μM compound, Table 3) of the same compound?
Its value is 57%.

What about the “HCT-116 % Inhibition at 0.1 μM” value (HCT-116 cell line; [3]) of the same compound?
Its value is 0%.

And the “HCT-116 % Inhibition at 0.25 μM” value (HCT-116 cell line; HCT-116, Table 3)?
Its value is 17%.
